Assay results as given in PubChem BioAssay (NCI).
In brackets after ≈: the same amount, converted by molar mass.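 Five compound concentrations were applied to cells in 96-well plates for 48 hours; endpoints were derived by simple linear interpolation of the resulting dose-response curve. GI50 is the concentration that inhibits growth by half. TGI marks complete inhibition of growth.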

Key:
Assay in all cases: NCI-60 cell line screen, 48 h
COLO 205 colon = test system: COLO 205 colon
OVCAR-5 ovarian = test system: OVCAR-5 ovarian
OVCAR-8 ovarian = test system: OVCAR-8 ovarian
RXF 393 renal = test system: RXF 393 renal
SF-295 CNS = test system: SF-295 CNS
SK-MEL-2 melanoma = test system: SK-MEL-2 melanoma
SW-620 colon = test system: SW-620 colon
HS 578T breast = test system: HS 578T breast
MALME-3M melanoma = test system: MALME-3M melanoma
MOLT-4 leukemia = test system: MOLT-4 leukemia

## CCOC(=O)c1csc(NC(=O)C(C)N2CCCC2)n1 (stereo not given)
COLO 205 colon
  TGI: > 100 µM
OVCAR-5 ovarian
  TGI: > 100 µM
OVCAR-8 ovarian
  TGI: > 100 µM
RXF 393 renal
  TGI: > 100 µM
SF-295 CNS
  TGI: > 100 µM
SK-MEL-2 melanoma
  TGI: > 100 µM
SW-620 colon
  TGI: > 100 µM

## O=c1oc2ccccc2c(O)c1Cc1ccc(Cc2c(O)c3ccccc3oc2=O)cc1
COLO 205 colon
  TGI: > 100 µM
HS 578T breast
  TGI: > 100 µM
MALME-3M melanoma
  TGI: > 100 µM
MOLT-4 leukemia
  TGI: > 100 µM
OVCAR-5 ovarian
  TGI: > 100 µM
OVCAR-8 ovarian
  TGI: > 100 µM
RXF 393 renal
  TGI: > 100 µM
SF-295 CNS
  TGI: > 100 µM
SK-MEL-2 melanoma
  TGI: > 100 µM
SW-620 colon
  TGI: > 100 µM

## O=C1NN(C2=NNC3(C(=O)N2)c2ccccc2-c2ccccc23)C(c2ccccc2)=N/C1=C/c1ccc(Cl)cc1
COLO 205 colon
  GI50: 69.2 µg/mL (≈ 127 µM)
  TGI: > 150 µg/mL
HS 578T breast
  GI50: 47.7 µg/mL (≈ 87.6 µM)
  TGI: > 150 µg/mL
MALME-3M melanoma
  GI50: 89.9 µg/mL (≈ 165 µM)
  TGI: > 150 µg/mL
MOLT-4 leukemia
  GI50: 42.7 µg/mL (≈ 78.4 µM)
  TGI: > 150 µg/mL
OVCAR-5 ovarian
  GI50: 132 µg/mL (≈ 242 µM)
  TGI: > 150 µg/mL
OVCAR-8 ovarian
  GI50: 78.1 µg/mL (≈ 143 µM)
  TGI: > 150 µg/mL
RXF 393 renal
  GI50: 56.9 µg/mL (≈ 104 µM)
  TGI: > 150 µg/mL
SF-295 CNS
  GI50: 30.7 µg/mL (≈ 56.3 µM)
  TGI: 73.9 µg/mL
SW-620 colon
  GI50: 52.8 µg/mL (≈ 96.9 µM)
  TGI: > 150 µg/mL
